Test results reported in patent US11919859B2, “Herbicidal mixture, composition and method” (FMC Corporation, priority 2017, dated 2024).

Experiments:
[1] = system: monochoria (MOOVA, Monochoria vaginalis); assay: Test A flooded greenhouse test, monochoria; type: in vivo; settings: 14 d
Source text: (§1) Seeds of Asian sprangletop (LEPCH, Leptochloa chinensis), smallflower umbrella sedge (CYPDI, Cyperus difformis), monochoria (MOOVA, Monochoria vaginalis) and ducksalad (HETLI, Heteranthera limosa) were sown on the soil surface in four separate quadrants of 16-cm tubs filled with steam pasteurized Tama soil. Simultaneously, plantings of barnyardgrass (ECHCG, Echinochloa crus-galli), japonica rice (ORYSA, Oryza sativa) and late watergrass (ECHPH, Echinochloa phyllopogon) were established in separate “plug” flats. Plants were grown in a greenhouse using supplemental lighting to maintain a photoperiod of approximately 16 h; daytime and nighttime temperatures were approximately 27-30° C. and 24-27° C., respectively. After 8 d, barnyardgrass, rice and late watergrass plants were transplanted in 3 quadrants of separate tub, and the water level was adjusted to a final depth of 3 cm. Herbicide application of Cmpd. No. 1 and florpyrauxifen-benzyl (CAS Registry No. 1390661-72-9; 439.2 g/mol) timing was targeted at the 2.0 to 2.5 leaf stage and the plants were treated with test chemicals formulated in a non-phytotoxic solvent. Treated plants and controls were maintained in a greenhouse for 14 d, after which time all species were compared to controls and visually evaluated. Plant response ratings are summarized in Table A, and are based on a scale of 0 to 100 where 0 is no effect and 100 is complete control and is the mean of duplicate ratings. A dash (-) response means no test result.
(§2) Colby's Equation was used to determine the herbicidal effects expected from the mixtures. Colby's Equation (Colby, S. R. “Calculating Synergistic and Antagonistic Responses of Herbicide Combinations,” Weeds 1967 15(1), pp 20-22) calculates the expected additive effect of herbicidal mixtures and for two active ingredients is of the form: Pa+b=Pa+Pb−(PaPb/100) wherein Pa+b is the percentage effect of the mixture expected from additive contribution of the individual components: • Pa is the observed percentage effect of the first active ingredient at the same use rate as in the mixture, and • Pb is the observed percentage effect of the second active ingredient at the same use rate as in the mixture. The results and additive effects expected from Colby's Equation are listed in Table A. Application rates are grams of active ingredient per hectare (g a.i./ha). “Obsd.” is the observed effect and “Exp.” is expected effect calculated from Colby's Equation.

[2] = system: ducksalad (HETLI, Heteranthera limosa); assay: Test A flooded greenhouse test, ducksalad; type: in vivo; settings: 14 d
Source text: as §1, §2

[3] = system: smallflower umbrella sedge (CYPDI, Cyperus difformis); assay: Test A flooded greenhouse test, smallflower umbrella sedge; type: in vivo; settings: 14 d
Source text: as §1, §2

[4] = system: late watergrass (ECHPH, Echinochloa phyllopogon); assay: Test A flooded greenhouse test, late watergrass; type: in vivo; settings: 14 d
Source text: as §1, §2

[5] = system: barnyardgrass (ECHCG, Echinochloa crus-galli); assay: Test A flooded greenhouse test, barnyardgrass; type: in vivo; settings: 14 d
Source text: as §1, §2

[6] = system: Asian sprangletop (LEPCH, Leptochloa chinensis); assay: Test A flooded greenhouse test, Asian sprangletop; type: in vivo; settings: 14 d
Source text: as §1, §2

[7] = system: japonica rice (ORYSA, Oryza sativa); assay: Test A flooded greenhouse test, japonica rice (crop); type: in vivo
Source text: as §1
Colby's Equation was used to determine the herbicidal effects expected from the mixtures. […] “Obsd.” is the observed effect and “Exp.” is expected effect calculated from Colby's Equation.

[8] = system: ragweed (common ragweed, Ambrosia elatior); assay: Test B preemergence, ragweed; type: in vivo; settings: approximately 10 d
Source text: (§3) Seeds of plant species selected from barnyardgrass (Echinochloa crus-galli), kochia (Kochia scoparia), ragweed (common ragweed, Ambrosia elatior), Ryegrass, Italian (Italian ryegrass, Lolium multiflorum), foxtail, green (green foxtail, Setaria viridis), and pigweed (Amaranthus retroflexus) were planted into a blend of loam soil and sand and treated preemergence with a directed soil spray using test chemicals formulated in a non-phytotoxic solvent mixture which included a surfactant.
(§4) At the same time, plants selected from these weed species and also wheat (Triticum aestivum), corn (Zea mays), blackgrass (Alopecurus myosuroides), and galium (catchweed bedstraw, Galium aparine) were planted in pots containing the same blend of loam soil and sand and treated with postemergence applications of test chemicals formulated in the same manner. Plants ranged in height from 2 to 10 cm and were in the one- to two-leaf stage for the postemergence treatment. Treated plants and untreated controls were maintained in a greenhouse for approximately 10 d, after which time all treated plants were compared to untreated controls and visually evaluated for injury. Plant response ratings, summarized in Table B, are based on a 0 to 100 scale where 0 is no effect and 100 is complete control. A dash (-) response means no test result.

[9] = system: sedge, umbrella (small-flower umbrella sedge, Cyperus difformis); assay: Test C flooded paddy test, umbrella sedge; type: in vivo; settings: Flood; 250 g ai/ha; 13 to 15 d
Experimental: (§5) Test C Plant species in the flooded paddy test selected from rice (Oryza sativa), sedge, umbrella (small-flower umbrella sedge, Cyperus difformis), ducksalad (Heteranthera limosa), and barnyardgrass (Echinochloa crus-galli) were grown to the 2-leaf stage for testing. At time of treatment, test pots were flooded to 3 cm above the soil surface, treated by application of test compounds directly to the paddy water, and then maintained at that water depth for the duration of the test. Treated plants and controls were maintained in a greenhouse for 13 to 15 d, after which time all species were compared to controls and visually evaluated. Plant response ratings, summarized in Table C, are based on a scale of 0 to 100 where 0 is no effect and 100 is complete control. A dash (-) response means no test result.

[10] = system: foxtail, green (green foxtail, Setaria viridis); assay: Test B preemergence, green foxtail; type: in vivo; settings: approximately 10 d
Source text: as §3, §4

[11] = system: Ryegrass, Italian (Italian ryegrass, Lolium multiflorum); assay: Test B postemergence, Italian ryegrass; type: in vivo; settings: approximately 10 d
Source text: as §3, §4

[12] = system: foxtail, green (green foxtail, Setaria viridis); assay: Test B postemergence, green foxtail; type: in vivo; settings: approximately 10 d
Source text: as §3, §4

[13] = system: galium (catchweed bedstraw, Galium aparine); assay: Test B postemergence, galium; type: in vivo; settings: approximately 10 d
Source text: as §3, §4

[14] = system: pigweed (Amaranthus retroflexus); assay: Test B postemergence, pigweed; type: in vivo; settings: approximately 10 d
Source text: as §3, §4

rice (Oryza sativa) = settings: in vivo
Experimental: as §5

corn (Zea mays) = assay: Test B postemergence, corn; type: in vivo; settings: approximately 10 d
Source text: as §3, §4

kochia (Kochia scoparia) [15] = assay: Test B preemergence, kochia; type: in vivo; settings: approximately 10 d
Source text: as §3, §4

[16] = system: barnyardgrass (Echinochloa crus-galli); assay: Test B preemergence, barnyardgrass; type: in vivo; settings: approximately 10 d
Source text: as §3, §4

[17] = system: pigweed (Amaranthus retroflexus); assay: Test B preemergence, pigweed; type: in vivo; settings: approximately 10 d
Source text: as §3, §4

[18] = system: ducksalad (Heteranthera limosa); assay: Test C flooded paddy test, ducksalad; type: in vivo; settings: Flood; 250 g ai/ha; 13 to 15 d
Experimental: as §5

[19] = system: Ryegrass, Italian (Italian ryegrass, Lolium multiflorum); assay: Test B preemergence, Italian ryegrass; type: in vivo; settings: approximately 10 d
Source text: as §3, §4

[20] = system: barnyardgrass (Echinochloa crus-galli); assay: Test C flooded paddy test, barnyardgrass; type: in vivo; settings: Flood; 250 g ai/ha; 13 to 15 d
Experimental: as §5

kochia (Kochia scoparia) [21] = assay: Test B postemergence, kochia; type: in vivo; settings: approximately 10 d
Source text: as §3, §4

[22] = system: barnyardgrass (Echinochloa crus-galli); assay: Test B postemergence, barnyardgrass; type: in vivo; settings: approximately 10 d
Source text: as §3, §4

[23] = system: wheat (Triticum aestivum); assay: Test B postemergence, wheat; type: in vivo; settings: approximately 10 d
Source text: as §3, §4

[24] = system: ragweed (common ragweed, Ambrosia elatior); assay: Test B postemergence, ragweed; type: in vivo; settings: approximately 10 d
Source text: as §3, §4

[25] = system: blackgrass (Alopecurus myosuroides); assay: Test B postemergence, blackgrass; type: in vivo; settings: approximately 10 d
Source text: as §3, §4

[26] = florpyrauxifen-benzyl 2 g a.i./ha alone
[27] = florpyrauxifen-benzyl 4 g a.i./ha alone

Compound: CN1C[C@H](c2cccc(C(F)(F)F)c2)[C@@H](C(=O)Nc2ccccc2F)C1=O [Cmpd. No. 1]
- MOOVA Obsd. plant response rating (0 to 100) ([1]; Cmpd. No. 1 50 g a.i./ha alone): 70
- MOOVA Obsd. plant response rating (0 to 100) ([1]; Cmpd. No. 1 75 g a.i./ha alone): 70
- HETLI Obsd. plant response rating (0 to 100) ([2]; Cmpd. No. 1 50 g a.i./ha alone): 70
- HETLI Obsd. plant response rating (0 to 100) ([2]; Cmpd. No. 1 75 g a.i./ha alone): 70
- CYPDI Obsd. plant response rating (0 to 100) ([3]; Cmpd. No. 1 50 g a.i./ha alone): 0
- CYPDI Obsd. plant response rating (0 to 100) ([3]; Cmpd. No. 1 75 g a.i./ha alone): 0
- ECHPH Obsd. plant response rating (0 to 100) ([4]; Cmpd. No. 1 50 g a.i./ha alone): 75
- ECHPH Obsd. plant response rating (0 to 100) ([4]; Cmpd. No. 1 75 g a.i./ha alone): 85
- ECHCG Obsd. plant response rating (0 to 100) ([5]; Cmpd. No. 1 50 g a.i./ha alone): 70
- ECHCG Obsd. plant response rating (0 to 100) ([5]; Cmpd. No. 1 75 g a.i./ha alone): 70
- LEPCH Obsd. plant response rating (0 to 100) ([6]; Cmpd. No. 1 50 g a.i./ha alone): 75
- LEPCH Obsd. plant response rating (0 to 100) ([6]; Cmpd. No. 1 75 g a.i./ha alone): 85
- ORYSA Obsd. plant response rating (0 to 100) ([7]; in vivo): 0

Compound: Cc1cc([C@H]2CN(C)C(=O)[C@@H]2C(=O)Nc2cccc(F)c2F)cc(OC(F)F)n1 [Cmpd. No. 4]
- Ragweed plant response rating (0 to 100) ([8]; 31 g ai/ha): 0
- Ragweed plant response rating (0 to 100) ([8]; 125 g ai/ha): 20
- Sedge, Umbrella plant response rating (0 to 100) [9]: 0
- Foxtail, Green plant response rating (0 to 100) ([10]; 31 g ai/ha): 100
- Foxtail, Green plant response rating (0 to 100) ([10]; 125 g ai/ha): 100
- Ryegrass, Italian plant response rating (0 to 100) ([11]; 31 g ai/ha): 30
- Ryegrass, Italian plant response rating (0 to 100) ([11]; 125 g ai/ha): 70
- Foxtail, Green plant response rating (0 to 100) ([12]; 31 g ai/ha): 70
- Foxtail, Green plant response rating (0 to 100) ([12]; 125 g ai/ha): 90
- Galium plant response rating (0 to 100) ([13]; 31 g ai/ha): 0
- Galium plant response rating (0 to 100) ([13]; 125 g ai/ha): 60
- Pigweed plant response rating (0 to 100) ([14]; 31 g ai/ha): 20
- Pigweed plant response rating (0 to 100) ([14]; 125 g ai/ha): 60
- Rice plant response rating (0 to 100) (rice (Oryza sativa)): 30
- Corn plant response rating (0 to 100) (corn (Zea mays); 31 g ai/ha): 60
- Corn plant response rating (0 to 100) (corn (Zea mays); 125 g ai/ha): 80
- Kochia plant response rating (0 to 100) (kochia (Kochia scoparia) [15]; 31 g ai/ha): 0
- Kochia plant response rating (0 to 100) (kochia (Kochia scoparia) [15]; 125 g ai/ha): 80
- Barnyardgrass plant response rating (0 to 100) ([16]; 31 g ai/ha): 100
- Barnyardgrass plant response rating (0 to 100) ([16]; 125 g ai/ha): 100
- Pigweed plant response rating (0 to 100) ([17]; 31 g ai/ha): 40
- Pigweed plant response rating (0 to 100) ([17]; 125 g ai/ha): 90
- Ducksalad plant response rating (0 to 100) [18]: 100
- Ryegrass, Italian plant response rating (0 to 100) ([19]; 31 g ai/ha): 30
- Ryegrass, Italian plant response rating (0 to 100) ([19]; 125 g ai/ha): 90
- Barnyardgrass plant response rating (0 to 100) [20]: 85
- Kochia plant response rating (0 to 100) (kochia (Kochia scoparia) [21]; 31 g ai/ha): 0
- Kochia plant response rating (0 to 100) (kochia (Kochia scoparia) [21]; 125 g ai/ha): 20
- Barnyardgrass plant response rating (0 to 100) ([22]; 31 g ai/ha): 80
- Barnyardgrass plant response rating (0 to 100) ([22]; 125 g ai/ha): 90
- Wheat plant response rating (0 to 100) ([23]; 31 g ai/ha): 40
- Wheat plant response rating (0 to 100) ([23]; 125 g ai/ha): 70
- Ragweed plant response rating (0 to 100) ([24]; 31 g ai/ha): 0
- Ragweed plant response rating (0 to 100) ([24]; 125 g ai/ha): 60
- Blackgrass plant response rating (0 to 100) ([25]; 31 g ai/ha): 60
- Blackgrass plant response rating (0 to 100) ([25]; 125 g ai/ha): 70

Compound: COc1c(Cl)ccc(-c2nc(C(=O)OCc3ccccc3)c(Cl)c(N)c2F)c1F [florpyrauxifen-benzyl, 2-pyridinecarboxylic acid, 4-amino-3-chloro-6-(4-chloro-2-fluoro-3-methoxyphenyl)-5-fluoro-, phenylmethyl ester, reference compound]
- MOOVA Obsd. plant response rating (0 to 100) [1, 26]: 90
- MOOVA Obsd. plant response rating (0 to 100) [1, 27]: 100
- HETLI Obsd. plant response rating (0 to 100) [2, 26]: 90
- HETLI Obsd. plant response rating (0 to 100) [2, 27]: 100
- CYPDI Obsd. plant response rating (0 to 100) [3, 26]: 80
- CYPDI Obsd. plant response rating (0 to 100) [3, 27]: 85
- ECHPH Obsd. plant response rating (0 to 100) [4, 26]: 0
- ECHPH Obsd. plant response rating (0 to 100) [4, 27]: 0
- ECHCG Obsd. plant response rating (0 to 100) [5, 26]: 0
- ECHCG Obsd. plant response rating (0 to 100) [5, 27]: 0
- LEPCH Obsd. plant response rating (0 to 100) [6, 26]: 0
- LEPCH Obsd. plant response rating (0 to 100) [6, 27]: 0
- ORYSA Obsd. plant response rating (0 to 100) ([7]; florpyrauxifen-benzyl 2 g a.i./ha alone, 14 d): 0
- ORYSA Obsd. plant response rating (0 to 100) ([7]; florpyrauxifen-benzyl 4 g a.i./ha alone, 14 d): 0
